Patent US20060241108A1, “Substituted phenoxazines and acridones as inhibitors of AKT” (St. Jude Children's Research Hospital, priority 2005, published 2006)

Assays:
Rh30 cells [1] = experiment: Cell growth inhibition, Rh30 cells; type: cell-based, human; settings: complete medium, six days, nuclei counted
Procedure: (§1) Cell lines and growth conditions. The human cell lines Rh1, Rh18, and Rh30 (ATCC Deposit # CRL 2061) have been described, e.g., by Hazelton et al. Cancer Res 1987;47:4501-4507 and Hosoi et al. Cancer Res. 1999;59:886-894. Rh1, Rh18 and Rh30 cells can each be grown in antibiotic free RPMI-1640 medium (available from BioWhittaker, Walkersville, Md.), supplemented with 10% fetal bovine serum (available from HyClone Laboratories, Logan, Utah) and 2 mM L-glutamine (available from BioWhittaker, Walkersville, Md.) at 37° C. in an atmosphere of 5% CO2. For serum free experiments, cells can be cultured in modified N2E (MN2E) medium (DMEM/F-12, 1:1 mixture) (Sigma, St. Louis, Mo.) supplemented with 1 μg/ml human holo transferrin, 30 nM sodium selenite, 20 nM progesterone, 100 μM putrescine, 30 nM vitamin E phosphate, and 50 μM ethanolamine. […]
(§2) Cell growth inhibition. […] Growth can be assessed after lysing cells, and counting nuclei. […]
(§3) The effect(s) of compounds, including phenoxazine compounds such as those listed in Table I, above, on cell growth can be evaluated in cell-based assays such as the exemplary assays described here. Rh1, Rh18 and/or Rh30 cells grown in complete medium can be exposed to graded concentrations of test compound (e.g., from 0.1 to 25 μM) for six days, at which time the cells can be lysed and their growth assessed by counting nuclei. […]

Rh30 cells [2] = experiment: Determination of apoptosis (Annexin V-FITC/propidium iodide flow cytometry), Rh30 cells; settings: Rh30, 7.5 μM, four days, n = 3
Procedure: Determination of apoptosis. An ApoAlert™ Annexin V-FITC Apoptosis kit (available from Clontech, Palo Alto, Calif.) can be used to evaluate the extent of apoptosis within cell populations. Cells (Rh1: 350,000 per 75-cm^2 flask; Rh18: 800,000 per 75-cm^2 flask; or Rh30: 500,000 per 75-cm^2 flask) are preferably grown overnight in complete medium. On day 1, cells are treated with DMSO (0.1%; vehicle control) or with a test compound (e.g., a phenoxazine or acridone compound). After 4 days, the cells are trypsinized, washed with PBS, and resuspended in 200 μl of binding buffer. Cells are then incubated with 10 μl of annexin V-FITC (final concentration, 1 μg/ml) and 500 ng of propidium iodide in a final volume of 410 μl. Cells are preferably incubated at room temperature in the dark for ten minutes before flow cytometric analysis with an FACSCalibur™ Flow Cytometry System (Becton Dickinson, San Jose, Calif.).
For instance, Rh1, Rh18 and/or Rh30 cells can be grown in complete medium with 0.1% DMSO (as a negative control) or with one or more test compounds, e.g., any of the phenoxazine compounds listed in Table I, above, including but not limited to the compounds 10B, 11B, 13B, 14B or 15B. […] Cells are then harvested, and the extent of apoptosis evaluated, e.g., by an ApoAlert™ (Clontech, Palo Alto, Calif.) flow cytometric assay.

endogenous AKT = experiment: Cellular AKT kinase activity: AKT immunoprecipitated from treated Rh1 cells phosphorylates GSK-3 fusion protein; type: cell-based, human; settings: 5 μM, 1 hour, IGF-I 10 minutes
Procedure: Determination of cellular AKT kinase activity. AKT kinase activity can be quantitated using a commercial assay kit (available from Cell Signaling Technology, Beverly, Mass.) according to the manufacturer's instructions. Specifically, Rh1 cells are seeded in serum-free medium at a density of 4×10^6 per 10-cm plate. […] Cells are then stimulated with ±IGF-I ([…]) for 10 minutes and washed once with ice-cold PBS. Cells are lysed in 200 μl of ice-cold 1× lysis buffer (20 mM Tris, pH 7.5; 150 mM NaCl; 1 mM EDTA; 1 mM EGTA; 1% Triton X-100; 2.5 mM sodium pyrophosphate; 1 mM β-glycerol phosphate; 1 mM Na3VO4; 1 mM phenylmethylsulfonyl fluoride; and 1 mM leupeptin) and incubated for 10 minutes on ice. The cell lysates are then centrifuged for 10 minutes at 17,500×g at 4° C. Volumes of the supernatants are preferably adjusted so that each sample contains an equal amount of protein (150 μg). The supernatants are then incubated with immobilized (cross-linked) anti-AKT antibody (Cell Signaling Technology, Beverly, Mass., catalog # 9279) for 3 hours at 4° C. […]
To determine directly whether compounds, such as the phenoxazine compounds in Table I, inhibit AKT activation in cells, the activation of AKT by IGF-I can be evaluated by assessing either phosphorylation of AKT (Ser473), or the in vitro kinase activity of protein immunoprecipitated by anti-AKT antibody. […]

Rh18 cells = experiment: Cell growth inhibition, Rh18 cells; type: cell-based, human; settings: complete medium, six days, nuclei counted
Procedure: as §1, §2, §3

Compound | IC50 (Rh30 cells [1]) | Percentage of cells ± SD, Apoptotic (Rh30 cells [2]) | Percentage of cells ± SD, Viable (Rh30 cells [2]) | phosphorylation of GSK-3 fusion protein by AKT immunoprecipitated from treated cells (endogenous AKT) | IC50 (Rh18 cells)
CCN(CC)CCCCN1c2ccccc2Oc2ccc(Cl)cc21 [Compound 10B, 10-[4′-(N-diethylamino)butyl]-2-chlorophenoxazine] | 6 µM | 43.00 ± 2.17% | 56.67 ± 2.62% | completely inhibited | 5 µM
10-[4′-[(β-hydroxyethyl)piperazino]butyl]-2-chlorophenoxazine [Compound 15B] | 6 µM | 88.67 ± 1.69% |  | completely inhibited | 5 µM
